Laboratory results reported in the supplement of paper PMC13380429.

What was measured:
[1] = tested on: A549-ACE2 infected with SARS-CoV-2; test: cell count relative to DMSO; higher = less toxic; settings: 24 h
A549-ACE2 [2] = test: drug-induced phospholipidosis relative to tamoxifen; higher = more phospholipidosis
Calu-3 [3] = test: cell viability relative to DMSO; higher = less toxic; settings: 72 h
HepG2 [4] = test: as above; settings: 72 h
Caco-2 [5] = test: as above; settings: 72 h
U2OS [6] = test: as above; settings: 72 h
Vero E6 [7] = test: as above; settings: 72 h
[8] = tested on: A549-ACE2 infected with SARS-CoV-2; test: morphology score (similarity to uninfected cells); higher = more like uninfected cells; settings: 24 h
Calu-3 [9] = test: relative viability EC50 (midpoint between 100% and the lowest measured viability); higher = less toxic; settings: 72 h
HepG2 [10] = test: as above; settings: 72 h
Caco-2 [11] = test: as above; settings: 72 h
U2OS [12] = test: as above; settings: 72 h
[13] = tested on: A549-ACE2 infected with SARS-CoV-2; test: SARS-CoV-2 infection rate relative to DMSO; higher = more infection; settings: 24 h
A549-ACE2 [14] = test: phospholipidosis EC50; higher = less potent phospholipidosis inducer
Calu-3 [15] = test: drug sensitivity score (DSS) for viability; higher = more toxic; extreme values may be limits of the assay; settings: 72 h
HepG2 [16] = test: as above; settings: 72 h
Caco-2 [17] = test: as above; settings: 72 h
U2OS [18] = test: as above; settings: 72 h
Vero E6 [19] = test: as above; settings: 72 h

**Q.** How did the cell count ([1]; 0.1 µM) turn out when Cc1[nH]c(/C=C2\C(=O)Nc3ccc(S(=O)(=O)Cc4c(Cl)cccc4Cl)cc32)c(C)c1C(=O)N1CCC[C@@H]1CN1CCCC1 was run?
**A.** 98%

**Q.** And the cell count ([1]; 0.3 µM)?
**A.** 109%

**Q.** And the cell count ([1]; 1 µM)?
**A.** 108%

**Q.** And the cell count ([1]; 3 µM)?
**A.** 115%

**Q.** What about the drug-induced phospholipidosis (A549-ACE2 [2]; 0.3 µM, 24 h) of the same molecule?
**A.** 20.1%

**Q.** What about the drug-induced phospholipidosis (A549-ACE2 [2]; 0.3 µM, 48 h) of the same molecule?
**A.** 14.3%

**Q.** What about the drug-induced phospholipidosis (A549-ACE2 [2]; 0.3 µM, 72 h) of the same molecule?
**A.** 13.7%

**Q.** And the drug-induced phospholipidosis (A549-ACE2 [2]; 0.833333 µM, 24 h)?
**A.** 33%

**Q.** What about the drug-induced phospholipidosis (A549-ACE2 [2]; 0.833333 µM, 48 h) of the same molecule?
**A.** 18.9%

**Q.** What about the drug-induced phospholipidosis (A549-ACE2 [2]; 0.833333 µM, 72 h) of the same molecule?
**A.** 15.6%

**Q.** What about the drug-induced phospholipidosis (A549-ACE2 [2]; 3.33333 µM, 24 h) of the same molecule?
**A.** 77.3%

**Q.** What about the drug-induced phospholipidosis (A549-ACE2 [2]; 3.33333 µM, 48 h) of the same molecule?
**A.** 53.1%

**Q.** And the drug-induced phospholipidosis (A549-ACE2 [2]; 3.33333 µM, 72 h)?
**A.** 43.6%

**Q.** And the drug-induced phospholipidosis (A549-ACE2 [2]; 6.66667 µM, 24 h)?
**A.** 173%

**Q.** What about the drug-induced phospholipidosis (A549-ACE2 [2]; 6.66667 µM, 48 h) of the same molecule?
**A.** 177%

**Q.** And the drug-induced phospholipidosis (A549-ACE2 [2]; 6.66667 µM, 72 h)?
**A.** 149%

**Q.** What about the drug-induced phospholipidosis (A549-ACE2 [2]; 10 µM, 24 h) of the same molecule?
**A.** 149%

**Q.** What about the drug-induced phospholipidosis (A549-ACE2 [2]; 10 µM, 48 h) of the same molecule?
**A.** 149%

**Q.** And the drug-induced phospholipidosis (A549-ACE2 [2]; 10 µM, 72 h)?
**A.** 64.6%

**Q.** And the cell viability (Calu-3 [3]; 1 nM)?
**A.** 100%

**Q.** And the cell viability (Calu-3 [3]; 10 nM)?
**A.** 98.2%

**Q.** What about the cell viability (Calu-3 [3]; 100 nM) of the same molecule?
**A.** 109%

**Q.** And the cell viability (Calu-3 [3]; 1000 nM)?
**A.** 100%

**Q.** And the cell viability (Calu-3 [3]; 10000 nM)?
**A.** 4.3%

**Q.** What about the cell viability (HepG2 [4]; 1 nM) of the same molecule?
**A.** 102%

**Q.** And the cell viability (HepG2 [4]; 10 nM)?
**A.** 96.9%

**Q.** What about the cell viability (HepG2 [4]; 100 nM) of the same molecule?
**A.** 102%

**Q.** And the cell viability (HepG2 [4]; 1000 nM)?
**A.** 104%

**Q.** And the cell viability (HepG2 [4]; 10000 nM)?
**A.** 3.3%

**Q.** What about the cell viability (Caco-2 [5]; 1 nM) of the same molecule?
**A.** 90.9%

**Q.** What about the cell viability (Caco-2 [5]; 10 nM) of the same molecule?
**A.** 99.2%

**Q.** What about the cell viability (Caco-2 [5]; 100 nM) of the same molecule?
**A.** 104%

**Q.** What about the cell viability (Caco-2 [5]; 1000 nM) of the same molecule?
**A.** 103%

**Q.** And the cell viability (Caco-2 [5]; 10000 nM)?
**A.** 3.7%

**Q.** And the cell viability (U2OS [6]; 1 nM)?
**A.** 97.2%

**Q.** What about the cell viability (U2OS [6]; 10 nM) of the same molecule?
**A.** 100%

**Q.** And the cell viability (U2OS [6]; 100 nM)?
**A.** 95.7%

**Q.** And the cell viability (U2OS [6]; 1000 nM)?
**A.** 103%

**Q.** What about the cell viability (U2OS [6]; 10000 nM) of the same molecule?
**A.** 0.9%

**Q.** What about the cell viability (Vero E6 [7]; 1 nM) of the same molecule?
**A.** 99.9%

**Q.** And the cell viability (Vero E6 [7]; 10 nM)?
**A.** 97.5%

**Q.** What about the cell viability (Vero E6 [7]; 100 nM) of the same molecule?
**A.** 101%

**Q.** What about the cell viability (Vero E6 [7]; 1000 nM) of the same molecule?
**A.** 91.1%

**Q.** What about the cell viability (Vero E6 [7]; 10000 nM) of the same molecule?
**A.** 57%

**Q.** And the morphology score ([8]; 0.1 µM)?
**A.** -0.01

**Q.** What about the morphology score ([8]; 0.3 µM) of the same molecule?
**A.** 0.51

**Q.** And the morphology score ([8]; 1 µM)?
**A.** 0.6

**Q.** What about the morphology score ([8]; 3 µM) of the same molecule?
**A.** 0.73

**Q.** What about the “relative viability EC50” value (Calu-3 [9]) of the same molecule?
**A.** 3.17 µM

**Q.** What about the “relative viability EC50” value (HepG2 [10]) of the same molecule?
**A.** 3.39 µM

**Q.** And the “relative viability EC50” value (Caco-2 [11])?
**A.** 3.36 µM

**Q.** What about the “relative viability EC50” value (U2OS [12]) of the same molecule?
**A.** 3.35 µM

**Q.** What about the SARS-CoV-2 infection rate ([13]; 0.1 µM) of the same molecule?
**A.** 109%

**Q.** And the SARS-CoV-2 infection rate ([13]; 0.3 µM)?
**A.** 83%

**Q.** What about the SARS-CoV-2 infection rate ([13]; 1 µM) of the same molecule?
**A.** 74%

**Q.** What about the SARS-CoV-2 infection rate ([13]; 3 µM) of the same molecule?
**A.** 26%

**Q.** What about the “phospholipidosis EC50” value (A549-ACE2 [14]; 24 h) of the same molecule?
**A.** 3.45 µM

**Q.** And the “phospholipidosis EC50” value (A549-ACE2 [14]; 48 h)?
**A.** 3.61 µM

**Q.** And the “phospholipidosis EC50” value (A549-ACE2 [14]; 72 h)?
**A.** 3.54 µM

**Q.** And the drug sensitivity score (Calu-3 [15])?
**A.** 5.4

**Q.** What about the drug sensitivity score (HepG2 [16]) of the same molecule?
**A.** 5.1

**Q.** What about the drug sensitivity score (Caco-2 [17]) of the same molecule?
**A.** 5.1

**Q.** What about the drug sensitivity score (U2OS [18]) of the same molecule?
**A.** 5.3

**Q.** What about the drug sensitivity score (Vero E6 [19]) of the same molecule?
**A.** 3.6
